For this assay, the target named is T1, human NOX4 (Homo sapiens, UniProt Q9NPH5).
T1 construct: The full-length human NOX4 (NM_016931.3) transcript was cloned; expressed in transfected cells
T1 sequence (Q9NPH5 1-578): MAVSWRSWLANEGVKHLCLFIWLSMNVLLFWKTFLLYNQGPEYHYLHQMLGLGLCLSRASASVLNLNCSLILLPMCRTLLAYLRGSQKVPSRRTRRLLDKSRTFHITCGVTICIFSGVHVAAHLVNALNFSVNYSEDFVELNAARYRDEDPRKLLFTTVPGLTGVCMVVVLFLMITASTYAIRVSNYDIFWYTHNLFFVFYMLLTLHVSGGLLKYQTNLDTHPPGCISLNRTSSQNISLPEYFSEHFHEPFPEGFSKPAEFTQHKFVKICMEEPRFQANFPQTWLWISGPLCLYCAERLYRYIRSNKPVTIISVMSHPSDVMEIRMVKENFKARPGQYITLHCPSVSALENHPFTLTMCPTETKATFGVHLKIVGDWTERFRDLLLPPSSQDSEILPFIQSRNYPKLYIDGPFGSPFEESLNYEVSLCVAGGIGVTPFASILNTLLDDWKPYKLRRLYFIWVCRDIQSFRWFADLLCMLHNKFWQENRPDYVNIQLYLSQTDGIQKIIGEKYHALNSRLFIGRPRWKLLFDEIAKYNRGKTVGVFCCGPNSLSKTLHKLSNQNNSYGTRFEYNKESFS
T1 sequence (P13498 1-195 partner): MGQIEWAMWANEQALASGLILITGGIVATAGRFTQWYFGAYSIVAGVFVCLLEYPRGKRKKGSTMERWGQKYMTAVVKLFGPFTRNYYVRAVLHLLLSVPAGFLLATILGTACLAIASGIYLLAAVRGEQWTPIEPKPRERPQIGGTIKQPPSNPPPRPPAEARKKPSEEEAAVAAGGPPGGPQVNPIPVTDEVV
Kind of assay: Amplex Red activity assay (cellular H2O2 formation in hNOX4 T-REx-293 cells). The class given is cell-based. The following applies: tet-induced 24 h, extracellular H2O2 by Amplex Red, 60 min 25° C., geometric mean if determined several times. Summed up:
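Tet-induced (1 μg/mL, 24 h) HEK293 T-REx cells stably expressing full-length human NOX4, 20 000 cells/well, exposed to compounds (10 concentrations, 50 μM to 100 nM; 1.25% DMSO) for 60 min at 25°C. Extracellular H2O2 detected by Amplex Red resorufin fluorescence (ex 550/em 600 nm) versus vehicle; IC50 calculated.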

The source of these data is patent US11136317B2, “NADPH oxidase 4 inhibitors” (ACTELION PHARMACEUTICALS LTD, priority 2015, dated 2021).

A word on the IC50: it is the concentration that gives 50% inhibition.

With `O=C(Nc1ccc2sc(N3CCC(O)CC3)nc2c1)c1ccc2c(c1)CCO2` [Example 110, 2,3-Dihydro-benzofuran-5-carboxylic acid [2-(4-hydroxy-piperidin-1-yl)-benzothiazol-5-yl]-amide], the IC50 came out at 2030 nM.

Turning to `O=C(Nc1ccc2sc(N3CC[C@@H](O)C3)nc2c1)c1ccc2c(c1)CCO2` [Example 112, 2,3-Dihydro-benzofuran-5-carboxylic acid [2-((R)-3-hydroxy-pyrrolidin-1-yl)-benzothiazol-5-yl]-amide], the IC50 was determined as 2270 nM.

As for `COCC1CCCN1c1nc2cc(NC(=O)c3ccc4c(c3)CCO4)ccc2s1` (stereo not drawn) [Example 113, 2,3-Dihydro-benzofuran-5-carboxylic acid [2-(2-methoxymethyl-pyrrolidin-1-yl)-benzothiazol-5-yl]-amide], the half-inhibitory concentration (IC50) was found to be 3250 nM.

Take `O=C(Nc1ccc2sc(N3CCC[C@H](O)C3)nc2c1)c1ccc2c(c1)CCO2` [Example 114, 2,3-Dihydro-benzofuran-5-carboxylic acid [2-((S)-3-hydroxy-piperidin-1-yl)-benzothiazol-5-yl]-amide]: the concentration for half-maximal inhibition (IC50) was determined as 2940 nM.

For the molecule `O=C(Nc1ccc2sc(N3CCC4(COC4)C3)nc2c1)c1ccc2c(c1)CCO2` [Example 115, 2,3-Dihydro-benzofuran-5-carboxylic acid [2-(2-oxa-6-aza-spiro[3.4]oct-6-yl)-benzothiazol-5-yl]-amide], the half-maximal inhibitory concentration (IC50) is 3410 nM.

In the case of `O=C(Nc1ccc2sc(N3CCC[C@@H](O)C3)nc2c1)c1ccc2c(c1)CCO2` [Example 116, 2,3-Dihydro-benzofuran-5-carboxylic acid [2-((R)-3-hydroxy-piperidin-1-yl)-benzothiazol-5-yl]-amide], the IC50 is 2170 nM.

Take `CN(C)CC1CCCN1c1nc2cc(NC(=O)c3ccc4c(c3)CCO4)ccc2s1` (stereo not drawn) [Example 117, 2,3-Dihydro-benzofuran-5-carboxylic acid [2-(2-dimethylaminomethyl-pyrrolidin-1-yl)-benzothiazol-5-yl]-amide]: the IC50 turned out to be 3760 nM.

With `O=C(Nc1ccc2oc(N3CCC3)nc2c1)c1ccc2c(c1)CCO2` [Example 118, 2,3-Dihydro-benzofuran-5-carboxylic acid (2-azetidin-1-yl-benzooxazol-5-yl)-amide], the IC50 was 504 nM.

With `CCNc1nc2cc(NC(=O)c3ccc4c(c3)CCO4)ccc2o1` [Example 119, 2,3-Dihydro-benzofuran-5-carboxylic acid (2-ethylamino-benzooxazol-5-yl)-amide], the concentration for half-maximal inhibition (IC50) was 990 nM.

For `O=C(Nc1ccc2oc(N3CC(c4ccccn4)C3)nc2c1)c1ccc2c(c1)CCO2` [Example 120, 2,3-Dihydro-benzofuran-5-carboxylic acid [2-(3-pyridin-2-yl-azetidin-1-yl)-benzooxazol-5-yl]-amide], the IC50 turned out to be 2340 nM.

`O=C(Nc1ccc2oc(N3CC(F)(F)C3)nc2c1)c1ccc2c(c1)OCO2` [Example 121, Benzo[1,3]dioxole-5-carboxylic acid [2-(3,3-difluoro-azetidin-1-yl)-benzooxazol-5-yl]-amide]: the IC50 turned out to be 9530 nM.

As to `O=C(Nc1ccc2oc(N3CC(O)C3)nc2c1)c1ccc2c(c1)OCO2` [Example 122, Benzo[1,3]dioxole-5-carboxylic acid [2-(3-hydroxy-azetidin-1-yl)-benzooxazol-5-yl]-amide], the IC50 stood at 2110 nM.

`O=C(Nc1ccc2oc(N3CCC34CCC4)nc2c1)c1ccc2c(c1)OCO2` [Example 123, Benzo[1,3]dioxole-5-carboxylic acid [2-(1-aza-spiro[3.3]hept-1-yl)-benzooxazol-5-yl]-amide]: the half-inhibitory concentration (IC50) worked out at 434 nM.

As to `O=C(Nc1ccc2oc(N3CCC34COC4)nc2c1)c1ccc2c(c1)OCO2` [Example 124, Benzo[1,3]dioxole-5-carboxylic acid [2-(6-oxa-1-aza-spiro[3.3]hept-1-yl)-benzooxazol-5-yl]-amide], the IC50 stood at 414 nM.

Take `O=C(Nc1ccc2oc(N3CCC34CCOC4)nc2c1)c1ccc2c(c1)OCO2` (stereo not drawn) [Example 125, Benzo[1,3]dioxole-5-carboxylic acid [2-(6-oxa-1-aza-spiro[3.4]oct-1-yl)-benzooxazol-5-yl]-amide]: the IC50 was 772 nM.

For the molecule `O=C(Nc1ccc2oc(N3CCC34CCOCC4)nc2c1)c1ccc2c(c1)OCO2` [Example 126, Benzo[1,3]dioxole-5-carboxylic acid [2-(7-oxa-1-aza-spiro[3.5]non-1-yl)-benzooxazol-5-yl]-amide], the IC50 was 757 nM.

Turning to `O=C(Nc1ccc2oc(N3CCCC3)nc2c1)c1ccc2c(c1)OCO2` [Example 127, Benzo[1,3]dioxole-5-carboxylic acid (2-pyrrolidin-1-yl-benzooxazol-5-yl)-amide], the 50% inhibitory concentration (IC50) was determined as 1250 nM.

For the molecule `O=C(Nc1ccc2oc(N3CCCC34COC4)nc2c1)c1ccc2c(c1)OCO2` [Example 128, Benzo[1,3]dioxole-5-carboxylic acid [2-(2-oxa-5-aza-spiro[3.4]oct-5-yl)-benzooxazol-5-yl]-amide], the half-inhibitory concentration (IC50) stood at 1740 nM.

On to `O=C(Nc1ccc2oc(N3CCCCC3)nc2c1)c1ccc2c(c1)OCO2` [Example 129, Benzo[1,3]dioxole-5-carboxylic acid (2-piperidin-1-yl-benzooxazol-5-yl)-amide], for which the half-maximal inhibitory concentration (IC50) stood at 857 nM.

As to `O=C(Nc1ccc2oc(N3CCCC(F)(F)C3)nc2c1)c1ccc2c(c1)OCO2` [Example 130, Benzo[1,3]dioxole-5-carboxylic acid [2-(3,3-difluoro-piperidin-1-yl)-benzooxazol-5-yl]-amide], the IC50 was determined as 991 nM.

For `COC1CCN(c2nc3cc(NC(=O)c4ccc5c(c4)OCO5)ccc3o2)CC1` [Example 131, Benzo[1,3]dioxole-5-carboxylic acid [2-(4-methoxy-piperidin-1-yl)-benzooxazol-5-yl]-amide], the half-maximal inhibitory concentration (IC50) turned out to be 1050 nM.

Take `O=C(Nc1ccc2oc(N3CCC4(CC3)COC4)nc2c1)c1ccc2c(c1)OCO2` [Example 132, Benzo[1,3]dioxole-5-carboxylic acid [2-(2-oxa-7-aza-spiro[3.5]non-7-yl)-benzooxazol-5-yl]-amide]: the IC50 is 1080 nM.

With `O=C(Nc1ccc2oc(N3CCCC4(COC4)C3)nc2c1)c1ccc2c(c1)OCO2` [Example 133, Benzo[1,3]dioxole-5-carboxylic acid [2-(2-oxa-6-aza-spiro[3.5]non-6-yl)-benzooxazol-5-yl]-amide], the half-inhibitory concentration (IC50) came to 614 nM.

In the case of `O=C(Nc1ccc2oc(N3CCC(F)(F)CC3)nc2c1)c1ccc2c(c1)OCO2` [Example 134, Benzo[1,3]dioxole-5-carboxylic acid [2-(4,4-difluoro-piperidin-1-yl)-benzooxazol-5-yl]-amide], the IC50 is 870 nM.

With `O=C(Nc1ccc2oc(N3CCC(O)CC3)nc2c1)c1ccc2c(c1)OCO2` [Example 135, Benzo[1,3]dioxole-5-carboxylic acid [2-(4-hydroxy-piperidin-1-yl]-benzooxazol-5-yl]-amide], the half-maximal inhibitory concentration (IC50) was found to be 1090 nM.

Regarding `O=C(Nc1ccc2oc(N3CCOCC3)nc2c1)c1ccc2c(c1)OCO2` [Example 136, Benzo[1,3]dioxole-5-carboxylic acid (2-morpholin-4-yl-benzooxazol-5-yl)-amide], the IC50 was 1280 nM.

As to `CN1CCN(c2nc3cc(NC(=O)c4ccc5c(c4)OCO5)ccc3o2)CC1` [Example 137, Benzo[1,3]dioxole-5-carboxylic acid [2-(4-methyl-piperazin-1-yl)-benzooxazol-5-yl]-amide], the IC50 amounted to 1640 nM.
